Measured values as given in BindingDB's records for doi:10.1021/jm00160a049 (1986).

Target: T1, Renin (Homo sapiens, UniProt P00797)
T1 sequence (P00797 whole entry): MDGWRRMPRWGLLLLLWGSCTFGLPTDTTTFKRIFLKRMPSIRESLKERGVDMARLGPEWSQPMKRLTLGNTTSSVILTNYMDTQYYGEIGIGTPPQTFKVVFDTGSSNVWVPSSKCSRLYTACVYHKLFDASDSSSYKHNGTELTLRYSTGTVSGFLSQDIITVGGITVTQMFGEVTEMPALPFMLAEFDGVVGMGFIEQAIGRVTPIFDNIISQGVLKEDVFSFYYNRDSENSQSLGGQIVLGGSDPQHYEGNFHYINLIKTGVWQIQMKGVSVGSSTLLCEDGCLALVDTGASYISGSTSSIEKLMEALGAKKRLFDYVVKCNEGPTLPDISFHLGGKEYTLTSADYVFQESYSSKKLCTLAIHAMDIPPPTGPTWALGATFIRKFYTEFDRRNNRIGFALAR
Assay: ChEBML_195744
Text: Inhibition of human plasma renin

IC50: 0.65 nM
SMILES: CC[C@H](C)[C@H](NC(=O)[C@@H](C[C@H](O)[C@H](CC(C)C)NC(=O)[C@H](Cc1c[nH]cn1)N(C)C(=O)[C@H](Cc1ccccc1)NC(=O)[C@@H]1CCCN1C(=O)OC(C)(C)C)C(C)C)C(=O)NCc1ccccn1 [2-(1-{[1-(2-Hydroxy-1-isobutyl-5-methyl-4-{2-methyl-1-[(pyridin-2-ylmethyl)-carbamoyl]-butylcarbamoyl}-hexylcarbamoyl)-2-(3H-imidazol-4-yl)-ethyl]-methyl-carbamoyl}-2-phenyl-ethylcarbamoyl)-pyrrolidine-1-carboxylic acid tert-butyl ester]
